Experimental data: patent publication US20260207559A1, “(S)-(3-(1-(1H-IMIDAZOL-4-YL)ETHYL)-2-METHYLPHENYL)METHANOL FOR TREATMENT OF AGITATION” (Alceptor Therapeutics, Inc., priority 2022, published 2026)
Read-outs that look alike come from different tables or passages of the source. Values belong to the compound of their own block, whether it stands above or below them.

Assays:
[1] = Pharmacokinetics after IV or oral dosing in mice
Protocol: (§1) Groups of rodents were dosed either intravenously or orally in order to determine certain pharmacokinetic properties, including oral bioavailability and half-life. Bioavailability was determined by comparing plasma exposure following IV dosing in a [19% hydroxypropyl beta-cyclodextrin/5% DMSO in saline] formulation with plasma exposure following dosing by oral gavage in a 0.5% methyl cellulose formulation.

[2] = in vivo
Protocol: as §1

[3] = Pharmacokinetics in rodents, plasma and brain (species not specified)
Protocol: as §1

[4] = test system: laboratory rodents
From the text: The resident-intruder model is an established preclinical model of aggression and agitation, and allows spontaneous and natural expression of both offensive aggression/agitation and defensive behavior in laboratory rodents in a semi natural laboratory setting. […] The latency to attack and the number of attacks are measures of agitation.

[5] = test system: Mice; settings: for Inhibition of distance travelled: 30-minute session
Protocol: Sedation is assessed in the Locomotor Activity (LMA) model. Mice are placed in a novel chamber and their exploratory activity during a 30-minute session is measured as distance traveled.

[6] = test system: 7 different human CYP enzymes; experiment: Metabolism by panel of human recombinant CYP enzymes, % compound remaining; settings: all incubations (7 CYPs); 2 µM; up to 60 min; NADPH
[7] = target: CYP2B6 (Homo sapiens, UniProt P20813); settings: recombinant enzyme, 1 h, 2 µM
Chain of CYP2B6 (P20813 whole entry): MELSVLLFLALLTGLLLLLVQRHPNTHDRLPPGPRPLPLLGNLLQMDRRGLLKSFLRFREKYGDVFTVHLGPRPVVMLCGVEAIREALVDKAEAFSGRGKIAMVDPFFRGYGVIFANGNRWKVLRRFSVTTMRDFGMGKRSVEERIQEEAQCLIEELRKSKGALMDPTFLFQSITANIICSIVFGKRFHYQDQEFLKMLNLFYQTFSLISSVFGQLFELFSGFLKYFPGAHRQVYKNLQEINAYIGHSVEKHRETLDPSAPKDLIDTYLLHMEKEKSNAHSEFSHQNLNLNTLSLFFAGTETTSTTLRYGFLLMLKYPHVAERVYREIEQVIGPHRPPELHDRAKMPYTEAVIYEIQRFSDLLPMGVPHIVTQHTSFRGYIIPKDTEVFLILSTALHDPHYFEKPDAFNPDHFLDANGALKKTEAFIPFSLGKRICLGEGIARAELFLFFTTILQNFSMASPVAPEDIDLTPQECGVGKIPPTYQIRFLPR

[8] = target: CYP2C8 (Homo sapiens, UniProt P10632); settings: recombinant enzyme, 1 h, 2 µM
Chain of CYP2C8 (P10632 whole entry): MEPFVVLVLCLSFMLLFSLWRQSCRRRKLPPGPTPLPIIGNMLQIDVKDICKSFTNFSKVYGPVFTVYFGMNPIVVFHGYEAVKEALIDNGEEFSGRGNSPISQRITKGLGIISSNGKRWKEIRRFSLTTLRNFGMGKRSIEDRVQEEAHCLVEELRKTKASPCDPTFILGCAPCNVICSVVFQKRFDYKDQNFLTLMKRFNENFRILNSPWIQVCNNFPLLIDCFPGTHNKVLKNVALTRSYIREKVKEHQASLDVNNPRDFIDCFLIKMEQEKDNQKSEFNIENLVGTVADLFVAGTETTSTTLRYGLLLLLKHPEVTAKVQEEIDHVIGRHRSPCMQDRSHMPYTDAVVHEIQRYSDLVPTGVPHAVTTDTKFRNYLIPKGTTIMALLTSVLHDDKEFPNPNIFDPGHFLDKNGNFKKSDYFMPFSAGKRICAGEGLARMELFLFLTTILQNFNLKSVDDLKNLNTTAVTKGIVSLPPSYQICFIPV

[9] = target: CYP2C19 (Homo sapiens, UniProt P33261); settings: recombinant enzyme, 1 h, 2 µM
Chain of CYP2C19 (P33261 whole entry): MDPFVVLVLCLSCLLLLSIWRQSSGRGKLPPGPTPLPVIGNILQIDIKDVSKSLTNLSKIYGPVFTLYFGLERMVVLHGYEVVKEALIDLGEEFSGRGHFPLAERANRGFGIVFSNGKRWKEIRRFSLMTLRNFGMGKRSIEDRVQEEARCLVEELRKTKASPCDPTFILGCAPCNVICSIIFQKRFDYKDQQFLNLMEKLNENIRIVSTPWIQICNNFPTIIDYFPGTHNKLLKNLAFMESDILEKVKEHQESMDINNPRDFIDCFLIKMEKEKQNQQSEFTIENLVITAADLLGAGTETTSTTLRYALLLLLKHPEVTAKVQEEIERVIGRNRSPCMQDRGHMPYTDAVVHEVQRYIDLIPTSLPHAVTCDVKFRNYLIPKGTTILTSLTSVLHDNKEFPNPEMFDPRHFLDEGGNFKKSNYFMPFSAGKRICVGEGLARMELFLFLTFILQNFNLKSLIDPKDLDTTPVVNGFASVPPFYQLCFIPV

[10] = target: CYP2D6 (Homo sapiens, UniProt P10635); settings: recombinant enzyme, 1 h, 2 µM
Chain of CYP2D6 (P10635 whole entry): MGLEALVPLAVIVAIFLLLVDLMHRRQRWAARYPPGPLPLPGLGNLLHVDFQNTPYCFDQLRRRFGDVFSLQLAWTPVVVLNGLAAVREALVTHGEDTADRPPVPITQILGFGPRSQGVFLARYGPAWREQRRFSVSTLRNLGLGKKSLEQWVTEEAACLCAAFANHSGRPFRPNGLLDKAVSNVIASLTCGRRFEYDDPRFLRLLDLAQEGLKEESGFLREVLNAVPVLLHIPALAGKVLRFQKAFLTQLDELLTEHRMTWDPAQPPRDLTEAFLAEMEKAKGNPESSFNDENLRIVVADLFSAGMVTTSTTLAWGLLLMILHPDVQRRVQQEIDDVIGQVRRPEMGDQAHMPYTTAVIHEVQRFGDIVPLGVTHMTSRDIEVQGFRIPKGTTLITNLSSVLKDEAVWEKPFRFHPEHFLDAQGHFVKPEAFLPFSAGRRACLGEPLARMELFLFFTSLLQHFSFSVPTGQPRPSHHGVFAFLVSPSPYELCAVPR

[11] = target: CYP3A4 (Homo sapiens, UniProt P08684); settings: recombinant enzyme, 1 h, 2 µM
Chain of CYP3A4 (P08684 whole entry): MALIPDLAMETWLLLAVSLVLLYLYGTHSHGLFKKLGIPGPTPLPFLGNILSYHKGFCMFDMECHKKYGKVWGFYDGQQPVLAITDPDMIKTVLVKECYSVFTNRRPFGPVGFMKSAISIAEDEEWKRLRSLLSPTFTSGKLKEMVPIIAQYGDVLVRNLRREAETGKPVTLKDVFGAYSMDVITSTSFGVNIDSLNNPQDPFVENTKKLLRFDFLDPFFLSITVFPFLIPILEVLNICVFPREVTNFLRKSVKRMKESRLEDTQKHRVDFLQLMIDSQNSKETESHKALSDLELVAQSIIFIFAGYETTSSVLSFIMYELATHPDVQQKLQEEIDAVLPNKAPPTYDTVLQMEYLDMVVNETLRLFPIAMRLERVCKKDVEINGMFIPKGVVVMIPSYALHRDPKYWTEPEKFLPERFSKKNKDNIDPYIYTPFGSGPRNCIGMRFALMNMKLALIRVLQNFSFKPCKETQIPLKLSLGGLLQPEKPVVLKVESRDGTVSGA

Structure (SMILES): Cc1c(CO)cccc1[C@H](C)c1c[nH]cn1
Time to maximum plasma concentration ([1]; mice): ≤ 10 min | bioavailability ([1]; mouse, plasma, oral): ≤ 51% | bioavailability ([2]; rat, in vivo): ≤ 34% | Time to maximum plasma concentration ([2]; rats): ≤ 17 min | Mean decrease of levels in plasma and brain ([3]; between 2 and 8 hrs): < 2 fold | Time to achieve pharmacological concentrations in the brain ([3]; brain): ≤ 30 minutes | half-life ([3]; plasma, po): 4.2 to 7 h | Half-life relative to dexmedetomidine (longer) ([3]; rodents (mice and rats), plasma, oral): 2- to 4 fold | Activity in resident-intruder model ([4]; 1 mg/kg): minimal activity | Sedation in LMA model ([5]; 1 mg/kg): minimally sedating | Inhibition of distance travelled ([5]; 2 mg/kg): about 25% | Inhibition of distance travelled ([5]; 3 mg/kg): < 50% | Maximum achievable level of activity in the LMA model ([5]; compared with dexmedetomidine): less than the maximum achievable level of activity with dexmedetomidine | Concentration as % of the starting concentration [6]: > 90%

Structure (SMILES): Cc1c(CO)cccc1[C@@H](C)c1c[nH]cn1 [(R)-(3-(1-(1H-imidazol-4-yl)ethyl)-2-methylphenyl)methanol]
bioavailability ([2]; rat, in vivo, po): 7%

bioavailability ([2]; rat, in vivo, po): 8.6% | half-life ([2]; rat, in vivo, po): 2 h | % of compound remaining [7]: 28% | % of compound remaining [8]: 84% | % of compound remaining [9]: 74% | % of compound remaining [10]: 7% | % of compound remaining [11]: 89%
Structure (SMILES): Cc1cccc([C@H](C)c2cnc[nH]2)c1C [dexmedetomidine]
Inhibition of attacks ([4]; 0.2 mg/kg): 20%
